Results: ChEMBL document CHEMBL1133707, “Heteroarylmethoxyphenylalkoxyiminoalkylcarboxylic acids as leukotriene biosynthesis inhibitors” (J Med Chem, 2000)

What was measured:
[1] = tested on: Rattus norvegicus; assay: Percent inhibition was determined for in vivo ionophore induced rat pleurisy at a dose of 3 mg/kg; type: functional
[2] = target: T1, Polyunsaturated fatty acid 5-lipoxygenase (Homo sapiens) (UniProt P09917); assay: Inhibition of Calcium Ionophore (A-23187)-stimulated LTB4 formation in Human Neutrophil assay at 100 uM.; type: functional
T1 sequence (whole entry): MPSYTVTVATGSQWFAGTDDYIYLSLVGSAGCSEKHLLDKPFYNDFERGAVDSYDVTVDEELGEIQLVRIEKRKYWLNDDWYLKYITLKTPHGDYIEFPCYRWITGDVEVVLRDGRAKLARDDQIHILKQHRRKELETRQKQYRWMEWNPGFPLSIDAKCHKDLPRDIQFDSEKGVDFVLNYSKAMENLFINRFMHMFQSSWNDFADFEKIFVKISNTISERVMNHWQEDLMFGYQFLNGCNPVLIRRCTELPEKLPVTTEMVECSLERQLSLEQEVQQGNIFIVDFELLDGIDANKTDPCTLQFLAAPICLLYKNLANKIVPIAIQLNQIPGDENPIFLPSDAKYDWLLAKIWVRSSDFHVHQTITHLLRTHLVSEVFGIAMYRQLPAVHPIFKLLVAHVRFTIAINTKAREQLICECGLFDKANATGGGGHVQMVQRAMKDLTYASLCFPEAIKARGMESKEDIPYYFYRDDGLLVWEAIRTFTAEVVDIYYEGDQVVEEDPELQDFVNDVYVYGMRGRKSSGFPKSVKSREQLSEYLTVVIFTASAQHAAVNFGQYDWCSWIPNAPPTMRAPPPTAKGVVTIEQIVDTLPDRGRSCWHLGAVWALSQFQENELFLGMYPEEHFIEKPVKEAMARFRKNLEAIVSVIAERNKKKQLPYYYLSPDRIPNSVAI

[3] = tested on: Rattus norvegicus; assay: In vivo inhibition of ionophore induced rat pleurisy.; type: functional
[4] = half life was determined in plasma of dog; type: ADME, organism-based, Canis lupus familiaris
[5] = half life was determined in plasma of monkey; type: ADME; conditions: simiiformes
[6] = organism: Homo sapiens; assay: Inhibition of Calcium Ionophore (A-23187)-stimulated LTB4 formation in Human whole blood assay.; type: functional
[7] = tested on: Rattus norvegicus; assay: Effective dose was determined in in vivo which inhibits 50% of the mean value in rat anaphylaxis.; type: functional

SMILES | I [1] | also measured
O=C(O)/C=N/OC(c1ccc(OCc2nc3ccccc3o2)cc1)C1CCCCC1 (stereo not given) | 14% | 
C/C(=N\OC(c1ccc(OCc2ccc3ccccc3n2)cc1)C1CCCCC1)C(=O)O (stereo not given) [listing 1 of 2 here] |  | inhibition [2]: 95%
C/C(CCC(=O)O)=N/OC(c1ccc(OCc2ccc3ccccc3n2)cc1)C1CCCCC1 (stereo not given) | 62% | 
O=C(O)/C=N/OC(c1ccc(OCc2csc(-c3ccc(Cl)cc3)n2)cc1)C1CCCCC1 (stereo not given) | 30% | 
C/C(=N\OC(c1ccc(OCc2nc3ccccc3s2)cc1)C1CCCCC1)C(=O)O (stereo not given) | 85% | 
CC(/C=C/C(=O)O)=N\OC(c1ccc(OCc2ccc3ccccc3n2)cc1)C1CCCCC1 (stereo not given) |  | ED50 [3]: 2 mg/kg
O=C(O)/C=N/OC(c1cc2cc(OCc3ccc4ccccc4n3)ccc2o1)C1CCCCC1 (stereo not given) | 31% | 
O=C(O)/C=N/OC(c1ccc(OCc2cnc3ccccc3n2)cc1)C1CCCCC1 (stereo not given) | 28% | 
O=C(O)/C=N/OC(c1ccc(OCc2ccc3ccccc3n2)c(F)c1)C1CCCCC1 (stereo not given) |  | inhibition [2]: 97%
C/C(=N\OC(c1ccc(OCc2cccc(Cl)n2)cc1)C1CCCCC1)C(=O)O (stereo not given) |  | inhibition [2]: 7%
C/C(=N\OCC(c1ccc(OCc2ccc3ccccc3n2)cc1)C1CCCCC1)C(=O)O (stereo not given) | 33% | 
C/C(=N\OC(c1ccc(OCc2nc3ccccc3s2)cc1Cl)C1CCCCC1)C(=O)O (stereo not given) |  | ED50 [3]: 2.6 mg/kg
COc1ccc(C(O/N=C(\C)C(=O)O)c2ccc(OCc3ccc4ccccc4n3)cc2)cc1 (stereo not given) | 20% | inhibition [2]: 58%
CCCCC(CCCC)C(O/N=C(\C)C(=O)O)c1ccc(OCc2ccc3ccccc3n2)cc1 (stereo not given) | 40% | 
C/C(=N\OC(c1ccc(OCc2ccc3ccccc3n2)c(C)c1)C1CCCCC1)C(=O)O (stereo not given) | 58% | 
CCCCCCCCCCCCC(O/N=C/C(=O)O)c1ccc(OCc2ccc3ccccc3n2)cc1 (stereo not given) |  | inhibition [2]: 54%
CCCCC(O/N=C(\C)C(=O)O)c1ccc(OCc2ccc3ccccc3n2)cc1 (stereo not given) |  | inhibition [2]: 45%
C/C(=N\OC(c1ccc(OCc2ccc3ccccc3n2)cc1)C1CCCCC1)C(=O)O (stereo not given) [listing 2 of 2 here] |  | half-life [4]: 5.6 h; half-life [5]: 1.5 h; IC50 [6]: 1800 nM; ED50 [3]: 0.5 mg/kg; ED50 [7]: 1.2 mg/kg
C/C(=N\OC(c1ccc(OCc2ccc3ccccc3n2)c(Cl)c1)C1CCCCC1)C(=O)O (stereo not given) |  | ED50 [3]: 1.2 mg/kg
COc1cc(OCc2ccc3ccccc3n2)ccc1C(O/N=C(\C)C(=O)O)C1CCCCC1 (stereo not given) | 32% | inhibition [2]: 98%
O=C(O)/C=N/OC(c1ccc(OCc2nc3ccccc3s2)cc1Br)C1CCCCC1 (stereo not given) |  | ED50 [3]: 1 mg/kg
C/C(=N\OC(c1ccc(OCc2ccc3cc(F)ccc3n2)cc1)C1CCCCC1)C(=O)O (stereo not given) |  | ED50 [3]: 0.4 mg/kg
COc1cc(OCc2ccc3ccccc3n2)ccc1C(O/N=C/C(=O)O)C1CCCCC1 (stereo not given) | 41% | 
O=C(O)/C(=N/OC(c1ccc(OCc2ccc3ccccc3n2)cc1)C1CCCCC1)c1cccs1 (stereo not given) | 29% | 
CCCCCCCC(O/N=C(\C)C(=O)O)c1ccc(OCc2ccc3ccccc3n2)cc1 (stereo not given) |  | inhibition [2]: 96%
C/C(=N\OC(c1ccc(COc2ccc3ccccc3n2)cc1)C1CCCCC1)C(=O)O (stereo not given) | 0% | 

SMILES | I [1] | also measured
O=C(O)/C=N/OC(c1ccc(OCc2nc3cc(F)ccc3s2)cc1)C1CCCCC1 (stereo not given) | 0% | 
O=C(O)/C=N/OC(c1ccc(OCc2ccccn2)cc1)C1CCCCC1 (stereo not given) | 3% | 
O=C(O)/C(CCc1ccccc1)=N/OC(c1ccc(OCc2ccc3ccccc3n2)cc1)C1CCCCC1 (stereo not given) | 34% | 
O=C(O)/C=N/OC(c1ccc(OCc2nc(-c3ccccc3)cs2)cc1)C1CCCCC1 (stereo not given) | 0% | 
CCCCCCCCC(O/N=C(\C)C(=O)O)c1ccc(OCc2ccc3ccccc3n2)cc1 (stereo not given) | 27% | inhibition [2]: 92%
O=C(O)/C=N/OC(c1ccc(OCc2nc3cc(F)ccc3s2)cc1Cl)C1CCCCC1 (stereo not given) |  | ED50 [3]: 1.7 mg/kg
Cc1nc(COc2ccc(C(O/N=C/C(=O)O)C3CCCCC3)cc2)cs1 (stereo not given) | 4% | 
C/C(=N\OC(c1ccc(OCc2ccc3ccccc3n2)cc1)C1CCCC1)C(=O)O (stereo not given) | 61% | 
O=C(O)/C=N/OC(c1ccc(OCc2ccc3ccccc3n2)cc1)C1C2CC3CC(C2)CC1C3 (stereo not given) |  | ED50 [3]: 1.2 mg/kg
C/C(=N\OC(CC(C)(C)c1ccccc1)c1ccc(OCc2ccc3ccccc3n2)cc1)C(=O)O (stereo not given) |  | ED50 [3]: 2 mg/kg
CC(C)c1ccc(-c2csc(COc3ccc(C(O/N=C/C(=O)O)C4CCCCC4)cc3)n2)cc1 (stereo not given) | 15% | 
C/C(=N\OC(c1cc2ccc(OCc3ccc4ccccc4n3)cc2s1)C1CCCCC1)C(=O)O (stereo not given) | 80% | 
O=C(O)c1ccc(O)c(/C=N/OC(c2ccc(OCc3ccc4ccccc4n3)cc2)C2CCCCC2)c1 (stereo not given) | 35% | inhibition [2]: 95%
O=C(O)/C=N/OC(c1nc(OCc2ccc3ccccc3n2)c(-c2ccccc2)s1)C1CCCCC1 (stereo not given) |  | inhibition [2]: 2%
O=C(O)C1CCC(=NOC(c2ccc(OCc3ccc4ccccc4n3)cc2)C2CCCCC2)CC1 (stereo not given) | 9% | 
C/C(=N\OC(c1ccc(OCc2ccc3ccccc3n2)cc1)C1C2CC3CC(C2)CC1C3)C(=O)O (stereo not given) |  | ED50 [3]: 0.6 mg/kg
O=C(O)/C=N/OC(c1ccc(OCc2ccc3ccccc3n2)cc1)C1CCCC1 (stereo not given) | 27% | 
CC(c1cc2ccccc2s1)N(O)C(N)=O (stereo not given) [ZILEUTON] |  | ED50 [3]: 6 mg/kg
O=C(O)/C(=N/OC(c1ccc(OCc2ccc3ccccc3n2)cc1)C1CCCCC1)c1ccccc1 (stereo not given) | 41% | 
C/C(=N\OC(c1ccc(OCc2ccc3ccccc3n2)cc1)c1cccnc1)C(=O)O (stereo not given) |  | inhibition [2]: 20%
O=C(O)/C=N/OC(c1ccc(OCc2ccc3cc(F)ccc3n2)cc1)C1CCCCC1 (stereo not given) | 39% | 
O=C(O)/C=N/OC(c1ccc2cc(OCc3ccc4ccccc4n3)ccc2c1)C1CCCCC1 (stereo not given) | 24% | 
C/C(=N\OC(c1ccc(OCc2cc(-c3ccccc3)on2)cc1)C1CCCCC1)C(=O)O (stereo not given) | 0% | inhibition [2]: 61%
C/C(=N\OC(c1ccc(OCc2nc(-c3ccccc3)cs2)cc1)C1CCCCC1)C(=O)O (stereo not given) | 15% | 
O=C(O)/C(Cc1ccc(O)cc1)=N/OC(c1ccc(OCc2ccc3ccccc3n2)cc1)C1CCCCC1 (stereo not given) | 39% | 
O=C(O)/C=N/OC(c1ccc(OCc2nc3ccccc3s2)cc1Cl)C1CCCCC1 (stereo not given) | 84% | 

SMILES | I [1] | also measured
C/C(CCCC(=O)O)=N\OC(c1ccc(OCc2ccc3ccccc3n2)cc1)C1CCCCC1 (stereo not given) |  | ED50 [3]: 3 mg/kg
O=C(O)/C=C/c1ccc(/C=N/OC(c2ccc(OCc3ccc4ccccc4n3)cc2)C2CCCCC2)cc1 (stereo not given) | 0% | inhibition [2]: 48%
CCCCCCCC(O/N=C/C(=O)O)c1ccc(OCc2ccc3ccccc3n2)cc1 (stereo not given) | 0% | inhibition [2]: 100%
O=C(O)c1ccc(/C=N/OC(c2ccc(OCc3ccc4ccccc4n3)cc2)C2CCCCC2)cc1 (stereo not given) | 41% | 
C/C(=N\OC(Cc1ccccc1)c1ccc(OCc2ccc3ccccc3n2)cc1)C(=O)O (stereo not given) | 36% | 
C/C(=N\OC(c1ccc(OCc2nc(-c3ccc(C(C)C)cc3)cs2)cc1)C1CCCCC1)C(=O)O (stereo not given) | 17% | inhibition [2]: 57%
O=C(O)CSC(CCCc1ccc(Cl)cc1)c1ccc(OCc2ccc3ccccc3n2)cc1 (stereo not given) |  | ED50 [3]: 1.6 mg/kg
C/C(CCCCCC(=O)O)=N\OC(c1ccc(OCc2ccc3ccccc3n2)cc1)C1CCCCC1 (stereo not given) | 5% | 
C/C(=N\OC(CCCc1ccc(F)cc1)c1ccc(OCc2ccc3ccccc3n2)cc1)C(=O)O (stereo not given) |  | ED50 [3]: 2.6 mg/kg
C/C(=N\OC(c1ccc(OCc2ccc3ccccc3n2)cc1)c1cccs1)C(=O)O (stereo not given) | 6% | 
C/C(=N/OC(CCc1ccc(OCc2ccc3ccccc3n2)cc1)C1CCCCC1)C(=O)O (stereo not given) | 6% | inhibition [2]: 51%
O=C(O)/C(=N\OC(c1ccc(OCc2ccc3ccccc3n2)cc1)C1CCCCC1)c1cccs1 (stereo not given) | 60% | 
CC(C)(C)Sc1c(CC(C)(C)C(=O)[O-])n(Cc2ccc(Cl)cc2)c2ccc(OCc3ccc4ccccc4n3)cc12.[Na+] [QUIFLAPON SODIUM] |  | ED50 [3]: 1.6 mg/kg
CCCCC(O/N=C/C(=O)O)c1ccc(OCc2ccc3ccccc3n2)cc1 (stereo not given) | 0% | 
C/C(CCC(=O)O)=N\OC(c1ccc(OCc2ccc3ccccc3n2)cc1)C1CCCCC1 (stereo not given) |  | ED50 [3]: 1 mg/kg
CCCCC(CCCC)C(O/N=C/C(=O)O)c1ccc(OCc2ccc3ccccc3n2)cc1 (stereo not given) | 7% | 
Cc1cc(C(O/N=C/C(=O)O)C2CCCCC2)ccc1OCc1ccc2ccccc2n1 (stereo not given) | 15% | 
O=C(O)/C=N/OC(c1ccc(OCc2ccc3ccccc3n2)cc1)C1CCCCC1 (stereo not given) |  | ED50 [3]: 2.5 mg/kg
C/C(=N\OC(Cc1ccc(OCc2ccc3ccccc3n2)cc1)C1CCCCC1)C(=O)O (stereo not given) | 30% | 
O=C(O)/C=N/OC(c1ccc(OCc2nc3ccccc3s2)cc1)C1CCCCC1 (stereo not given) |  | ED50 [3]: 3 mg/kg
O=C(O)[C@@H](c1ccc(OCc2ccc3ccccc3n2)cc1)C1CCCC1 [VELIFLAPON] |  | ED50 [3]: 4 mg/kg
O=C(O)/C=N/OC(c1ccc(-c2ccc(OCc3ccc4ccccc4n3)cc2)cc1)C1CCCCC1 (stereo not given) | 10% | inhibition [2]: 55%
C/C(=N\OC(c1ccc(OCc2ccc3ccccc3n2)cc1)C1CCCCCC1)C(=O)O (stereo not given) |  | ED50 [3]: 0.7 mg/kg
C/C(=N\O[C@@H](c1ccc(OCc2ccc3ccccc3n2)cc1)C1CCCCC1)C(=O)O | 29% | half-life [4]: 4.5 h; half-life [5]: 3.8 h; Inhibition ([6]; Homo sapiens, Blood): 63%
C/C(=N\OC(c1ccc(OCc2nc3cc(F)ccc3s2)cc1Cl)C1CCCCC1)C(=O)O (stereo not given) | 22% | 
O=C(O)/C=N/OC(c1ccc(OCc2nc3cccnc3s2)cc1)C1CCCCC1 (stereo not given) | 47% | 
